# In article PMC8720025, “PTHG2 Reduces Bone Loss in Ovariectomized Mice by Directing Bone Marrow Mesenchymal Stem Cell Fate” (Stem Cells International, 2021):
# Legend:
# [1] = test system: OVX-induced bone loss in mice; experiment: OVX-induced bone loss model (micro-CT, histology, qPCR); format: in vivo, C57/BL6 mice
# [2] = CD spectroscopy, peptide helicity; format: physicochemical; conditions: 50 μM peptide in 50.0% TFE water solution, 25°C (legend: 20°C), from [θ]222
# Procedure: CD parameters was collected on a JASCO J-820 spectropolarimeter (JASCO Corp., Ltd). […] The sample ellipticity data were collected at 25°C and 195 nm. The helicity of the polypeptide is calculated by the following formula [36, 37]. (1) α=θ222/ θmax×100%.
# [θ]222 was the molar ellipticity at the absorption wavelength of 222 nm, [θ]max = ([…] + 250 T) (1 − K/N), K = 4, and N was the number of amino acids of the polypeptide (n = 34).
# [3] = test system: BMSCs; experiment: In vitro osteogenesis assay of BMSCs; format: cell-based, C57/BL6 mice
# [4] = test system: BMSCs; experiment: In vitro adipogenesis assay of BMSCs; format: cell-based, C57/BL6 mice
# [5] = test system: CREB phosphorylation in BMSCs; experiment: Western blotting of CREB phosphorylation (cAMP-PKA signaling); format: cell-based, C57/BL6 mice
# Procedure: The unstimulated group was the control group. After the stimulation, the cells were digested, and RIPA cell lysate (containing protein phosphatase inhibitors) was added and centrifuged. 30 μg protein was separated with SDS-PAGE. The proteins were then shifted to the nitrocellulose membrane using a trans-Blot Turbo Transfer System (Bio-Rad Laboratories, Hercules, CA, USA). Membrane was sealed with 5% bovine serum albumin (BSA) for 1 h. Membrane and specific primary antibody were incubated overnight at 4°C. Then, membrane was disposed with fluorescently labeled secondary Goat anti-Rabbit IgG Antibody (Dylight) for 1 hour at 25°C. The protein bands were imaged with a Bio-Rad visual imaging system (Bio-Rad Laboratories, Hercules, CA), and the relative protein expression was analyzed by Image J.
# [6] = test system: BMSCs; experiment: Cell cycle analysis by PI staining and flow cytometry; format: cell-based, C57/BL6 mice; conditions: PI staining, flow cytometry
# Procedure: Cells were cultured with 10 μM BrdU for one hour and fixed in 70% ethanol at -20 C. After washing with phosphate/citric buffer (40 ml Na2HPO4 with 4 ml 0.1 M citric acid), the cells were incubated with anti-BrdU antibody for one hour, then stained with propidium iodide (PI). For PI/RNase staining, cells were incubated with 0.5 ml of PI/RNAse staining buffer (BD Pharmingen) at 25°C for 15 minutes, then analyzed by flow cytometry.
# [7] = test system: heart, liver, spleen, lung, and kidney of mice; experiment: In vivo tissue toxicity test (H&E staining of organs); conditions: H&E staining after administration
# Procedure: (a) BMSC cell viability as assessed by CCK-8 assay following treatment without or with indicated concentrations of PTHG2 for 48 and 96 h. […] (c) The relative expression of Cebp-α and Perilipin following PTHG2 treatment was quantified by real-time PCR. (d) After pretreatment with H89, BMSC differentiated and stained with Alizarin red for 21 days. Supplementary Material 2: H&E staining of the heart, liver, spleen, lung, and kidney after administration of normal saline, PTH, and PTHG2. Click here for additional data file.
# [8] = test system: BMSCs; experiment: CCK-8 cell viability assay; format: cell-based, C57/BL6 mice; conditions: concentrations below 100 μM, 48 h and 96 h, absorbance 450 nm
# Procedure: BMSCs were extracted from the femoral and tibial marrow cavity of 5-week-old C57/BL6 mice and cultured in mouse bone marrow mesenchymal stem cell medium for 2-3 days. The new culture medium was changed until the adherent cells grew 95% confluence and cell passage, or subsequent experiments were carried out. The cell growth environment was 37°C, 5% CO2, and […].
# Cell viability of BMSCs were tested using the CCK-8 (Dojindo Molecular Technology, Kumamoto, Japan) according to instruction. BMSCs were inoculated in a 96-well plate (5 × 10^3 cells per well) and hatched overnight. […] Then, cells were disposed with 10 μl of CCK-8 reagent for 2 hours. After incubation, the absorbance was measured at 450 nm in a Biotek Cytation 5 System (Biotek Instruments, Vermont, USA).
# [9] = 20/40 μg·kg−1 intraperitoneal daily for 8 weeks, compared with OVX group
SMILES,"bone trabeculae number (Tb. N), micro-CT of femur [1, 9]","bone volume fraction (BV/TV), micro-CT of femur [1, 9]",helicity [2],"osteogenic differentiation activity of BMSCs (ALP staining) ([3]; 10 nM, 6 h/day, osteogenic medium, 7 days)","expression of Runx2 gene (qPCR) ([3]; 10 nM, osteogenic differentiation, compared with control group)","ALP and RUNX2 protein levels (Western blotting) ([3]; osteogenic differentiation, 3, 7, and 10 days, compared to the control group)","number of adipocytes (oil red staining) ([4]; adipogenic conditioned medium, 21 days, compared with the control)","adipogenic gene protein expression (Fabp4/PPARɣ/Adiponectin) ([4]; adipogenic differentiation, compared with control group)","phosphorylation level of CREB ([5]; BMSCs starved 1 hour, stimulated with 10 μM peptide for 6 hours, without H89-2HCl)",effect on cell cycle [6],"number of FABP4-positive cells (IHC, distal femur) [1]","OCN positivity, immunofluorescence of distal femur ([1]; 8 weeks of treatment)","number of lining cells on the trabecular bone surface (H&E) ([1]; 8 weeks of treatment, compared to the OVX group, n = 6 per group)","expression of OCN gene in bone mRNA (qPCR) ([1]; bone of the upper limb, compared with the OVX group)","inhibition of adipocyte generation (Fabp4 gene, qPCR) ([1]; compared with PTH (1-34))","number of adipocytes (vacuoles/cavitation) in H&E staining ([1]; metaphysis, compared with OVX group)","tissue toxicity to heart, liver, spleen, lung, and kidney [7]",toxicity to BMSCs (CCK-8) [8],"phosphorylation level of CREB ([5]; BMSCs pretreated with H89-2HCl for 1 hour, then stimulated with PTH (1-34)/PTHG2 for 6 hours)"
"CC[C@H](C)[C@H](NC(=O)[C@H](CCC(=O)O)NC(=O)[C@H](CO)NC(=O)[C@@H](NC(=O)[C@@H](N)CO)C(C)C)C(=O)N[C@@H](CCC(N)=O)C(=O)N[C@@H](CC(C)C)C(=O)N[C@@H](CCSC)C(=O)N[C@@H](Cc1c[nH]cn1)C(=O)N[C@@H](CC(N)=O)C(=O)N[C@@H](CC(C)C)C(=O)NCC(=O)N[C@@H](CCCCN)C(=O)N[C@@H](Cc1c[nH]cn1)C(=O)N[C@@H](CC(C)C)C(=O)N[C@@H](CC(N)=O)C(=O)N[C@@H](CO)C(=O)N[C@@H](CCSC)C(=O)N[C@@H](CCC(=O)O)C(=O)N[C@@H](CCCNC(=N)N)C(=O)N[C@H](C(=O)N[C@@H](CCC(=O)O)C(=O)N[C@@H](Cc1c[nH]c2ccccc12)C(=O)N[C@@H](CC(C)C)C(=O)N[C@@H](CCCNC(=N)N)C(=O)N[C@@H](CCCCN)C(=O)N[C@@H](CCCCN)C(=O)N[C@@H](CC(C)C)C(=O)N[C@@H](CCC(N)=O)C(=O)N[C@@H](CC(=O)O)C(=O)N[C@H](C(=O)N[C@@H](Cc1c[nH]cn1)C(=O)N[C@@H](CC(N)=O)C(=O)N[C@@H](Cc1ccccc1)C(=O)O)C(C)C)C(C)C [PTH (1-34), Teriparatide, reference compound]",significantly increased,significantly increased,38.5%,–,–,–,–,–,–,–,–,–,–,–,–,–,–,–,–
CC[C@H](C)[C@H](NC(=O)[C@H](CCC(=O)O)NC(=O)[C@H](CO)NC(=O)[C@@H](NC(=O)[C@@H](N)CO[C@@H]1O[C@H](CO)[C@@H](O)[C@H](O)[C@H]1NC(C)=O)C(C)C)C(=O)N[C@@H](CCC(N)=O)C(=O)N[C@@H](CC(C)C)C(=O)N[C@@H](CCSC)C(=O)N[C@@H](Cc1c[nH]cn1)C(=O)N[C@@H](CC(N)=O)C(=O)N[C@@H](CC(C)C)C(=O)NCC(=O)N[C@@H](CCCCN)C(=O)N[C@@H](Cc1c[nH]cn1)C(=O)N[C@@H](CC(C)C)C(=O)N[C@@H](CC(N)=O)C(=O)N[C@@H](CO)C(=O)N[C@@H](CCSC)C(=O)N[C@@H](CCC(=O)O)C(=O)N[C@@H](CCCNC(=N)N)C(=O)N[C@H](C(=O)N[C@@H](CCC(=O)O)C(=O)N[C@@H](Cc1c[nH]c2ccccc12)C(=O)N[C@@H](CC(C)C)C(=O)N[C@@H](CCCNC(=N)N)C(=O)N[C@@H](CCCCN)C(=O)N[C@@H](CCCCN)C(=O)N[C@@H](CC(C)C)C(=O)N[C@@H](CCC(N)=O)C(=O)N[C@@H](CC(=O)O)C(=O)N[C@H](C(=O)N[C@@H](Cc1c[nH]cn1)C(=O)N[C@@H](CC(N)=O)C(=O)N[C@@H](Cc1ccccc1)C(=O)O)C(C)C)C(C)C [PTHG2],–,–,39.1%,significantly enhanced,higher than that in control group,significantly increased,did not increase,resemble to that of the control group,increased,no effect,reduced,significant increase,significantly increased,significantly increased,same effect as PTH (1-34),significantly reduced,no toxicity,no toxicity,–
"O=S(=O)(NCCNC/C=C/c1ccc(Br)cc1)c1cccc2cnccc12 [H89-2HCL, H89-2HCl, reference compound]",–,–,–,–,–,–,–,–,–,–,–,–,–,–,–,–,–,–,not increased
